Results as given in patent publication US12156889B2, “Methods of administering mesenchymal stem cells activated by cytokines for enhancing immunosuppression” (Rutgers, The State University of New Jersey, priority 2012, dated 2024).

Columns and labels:
[1] = test system: 355 B-cell lymphoma cell line; experiment: 355 B-cell lymphoma survival model; format: in vivo; details: 0.1 mg/mouse i.p. on day 0, 2, 4, 8, 12, 16, 20, 24, and 28
Procedure: FIG. 4. is a graph showing that lymphoma stromal cells (LSCs) promote lymphoma development in a NO-dependent manner. 355 B-cell lymphoma cell line (C3H-gld/gld background, 0.5×10^6 cells/mouse) was co-injected with gld/gld mice-derived lymphoma stromal cells (C3H background, P5, 0.25×10^6 cells/mouse) by tail-vein i.v. on day 0.1400 W (NOS inhibitor, 0.1 mg/mouse) was injected on day 0, 2, 4, 8, 12, 16, 20, 24, and 28 by i.p. Mice survival was recorded when mice were moribund.
To examine the effect of lymphoma stromal cells on tumor growth, 355 B-cell lymphoma cell line (C3H-gld/gld background, 0.5×10^6 cells/mouse) was co-injected with gld/gld mice-derived lymphoma stromal cells (C3H background, P5, 0.25×10^6 cells/mouse).

[2] = test system: splenocytes; experiment: Anti-CD3-activated splenocyte proliferation in co-culture with MSCs; format: cell-based, mouse
Procedure: FIGS. 9A, 9B, 9C, 9D, 9E, 9F and 9G. […] Cloned MSCs were first treated with the indicated combinations of recombinant cytokines IFNγ, TNFα, IL-17A (2 ng/ml each) for 12 hr, then cocultured with CD4^+ T cell blasts at a 1:20 ratio (MSC:T cells), and proliferation was assessed by 3H-thymidine incorporation after an additional 12 hr. (FIG. 9B). The mRNA expression of IL-17 receptor family members in MSCs or Raw 264.7 (Macrophages) were examined by RT-PCR. NC: No RT. (FIG. 9C). Surface expression of IL-17RA was detected by immunofluoresence or flow cytometry in cloned MSCs. (FIGS. 9D and 9E). MSCs were first treated with IFNγ and TNFα with or without IL-17A (10 ng/ml), IFNγ and TNFα were supplemented at different cytokine concentrations, for 12 hr, and then cocultured with CD4^+ T cell blasts (FIG. 9D) or T cell hybridoma A1.1 cells (FIG. 9E) at a ratio of 1:20 for 12 hr. T cell proliferation was measured by 3H-Tdr incorporation. (FIG. 9F). MSCs were first treated with IFNγ and TNFα (2 ng/ml) with graded concentrations of IL-17A, for 12 hr, and then cocultured with T cell hybridoma A1.1 cells at a ratio of 1:10 for 12 hr. T cell proliferation was measured by 3H-thymidine incorporation. (FIG. 9G). MSCs were cocultured with fresh C57BL/6 splenocytes plus anti-CD3, anti-CD28, and antibodies against IL-17A, at a 1:20 or 1:40 ratio (MSCs:splenocytes), for 48 hr, and then cell proliferation was assessed by 3H-thymidine incorporation. Proliferation values represent means±SEM of three wells from a representative of three experiments.
To examine the possibility that cytokines induce the immunosuppressive capacity of MSCs, these culture conditions were reproduced by combining MSCs and fresh splenocytes at graded ratios in the presence of anti-CD3. […] The immunosuppressive capacity of MSC clones generated from different mouse strains was also examined.
To identify the mechanism through which immunosuppression by cytokine-exposed MSCs is effected, the response of anti-CD3-activated splenocytes co-cultured with MSCs (1:20, MSC:splenocytes) in a […] system was examined in various configurations.
Nitric oxide (NO) at high concentrations is known to inhibit T cell responses. It diffuses quickly from its source, but the concentration of the active form drops off within about 100 μm.
Proliferation assay—To assay T cell proliferation, 0.5 μCi of 3H-thymidine was added to each well of 96-well plates 6 hr before termination of the cultures by freezing. Plates were then thawed, cells were harvested, and incorporated 3H-Tdr was assessed with a Wallac Microbeta scintillation counter (Perkin-Elmer, Waltham, MA).

[3] = test system: iNOS; experiment: iNOS protein and NO production in MSCs with type I IFN or FGF-2; format: cell-based, mouse; details: induced by IFN γ+TNF α or IFN γ+IL-β
Description: FIGS. 17A, 17B, 17C and 17D. Type I interferons and FGF-2 down-regulate the immunosuppressive effect of MSCs through attenuation NO production. […] (FIG. 17C) FGF-2 (FGF B) inhibited the NO production which was induced by IFN γ+TNF α or IFN γ+IL-β in MSCs, reflected by nitrate content in the culture supernatants.

## CC(=N)NCc1cccc(CN)c1 [1400 W]
[1]
  effect on stromal cell-enhanced mortality: significantly reverted the effect
[2]; MSCs + splenocytes + anti-CD3
  splenocyte proliferation in MSC co-culture with iNOS inhibitor: same effect

B1: FGF-2: fibroblast growth factor (protein, UniProt P15655 10-154, looked up)
Fibroblast growth factor 2: PALPEDGGAAFPPGHFKDPKRLYCKNGGFFLRIHPDGRVDGVREKSDPHVKLQLQAEERGVVSIKGVCANRYLAMKEDGRLLASKCVTEECFFFERLESNNYNTYRSRKYSSWYVALKRTGQYKLGSKTGPGQKAILFLPMSAKS
[2]
  MSC-mediated immunosuppression in MSC+splenocyte+anti-CD3 system: significantly reduced
[3]
  NO production in MSCs (nitrate content in culture supernatants): inhibited
